Test results as given in ChEMBL document CHEMBL1201862, “PubChem BioAssay data set” (2004).
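Method: 48-hour compound exposure of cells in 96-well plates, five concentrations, linear interpolation of endpoints. The concentration for 50% growth inhibition is given as GI50.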 Active and inactive are the calls of the source. Cut-off read from the data, not from the text of the source: active = GI50 up to about 1.1 µM and inactive = higher.

What was measured:
Test in all cases: DTP human tumour cell line panel, 48 h
OVCAR-4 = test system: OVCAR-4
NCI-H460 = test system: NCI-H460
HOP-92 = test system: HOP-92
Hs-578T = test system: Hs-578T
RPMI-8226 = test system: RPMI-8226
SF-268 = test system: SF-268
SNB-75 = test system: SNB-75
T47D = test system: T47D
NCI/ADR-RES = test system: NCI/ADR-RES
SK-OV-3 = test system: SK-OV-3
OVCAR-5 = test system: OVCAR-5
786-0 = test system: 786-0
MOLT-4 = test system: MOLT-4
LOX IMVI = test system: LOX IMVI
OVCAR-3 = test system: OVCAR-3
CCRF-CEM = test system: CCRF-CEM
TK-10 = test system: TK-10
M14 = test system: M14
U-251 = test system: U-251
EKVX = test system: EKVX

Row | SMILES | GI50 (OVCAR-4) | GI50 (NCI-H460) | GI50 (HOP-92) | GI50 (Hs-578T) | GI50 (RPMI-8226) | GI50 (SF-268) | GI50 (SNB-75) | GI50 (T47D) | GI50 (NCI/ADR-RES) | GI50 (SK-OV-3) | GI50 (OVCAR-5) | GI50 (786-0) | GI50 (MOLT-4) | GI50 (LOX IMVI) | GI50 (OVCAR-3) | GI50 (CCRF-CEM) | GI50 (TK-10) | GI50 (M14) | GI50 (U-251) | GI50 (EKVX)
1 | CC1=C(O)C(=O)C=C2C1=CC=C1[C@@]2(C)CC[C@@]2(C)C3C[C@@H](C)C(=O)[C@@H](O)[C@]3(C)CC[C@]12C (stereo not given in full) | 3.32 µM (inactive) | 5.58 µM (inactive) | 2.03 µM (inactive) | 4.18 µM (inactive) | 1.25 µM (inactive) | 3.38 µM (inactive) | 8.38 µM (inactive) | 1.64 µM (inactive) | 2.97 µM (inactive) | 9.04 µM (inactive) | 4.23 µM (inactive) | 0.946 µM (active) | 0.745 µM (active) | 1.5 µM (inactive) | 1.88 µM (inactive) | 0.33 µM (active) | 1.84 µM (inactive) | 1.64 µM (inactive) | 1.85 µM (inactive) | 2.08 µM (inactive)
2 | CNn1c(C)n[nH]c1=O | > 100 µM (inactive) | > 100 µM (inactive) | > 100 µM (inactive) | > 100 µM (inactive) | > 100 µM (inactive) | > 100 µM (inactive) | 50.8 µM (inactive) | > 100 µM (inactive) | > 100 µM (inactive) | > 100 µM (inactive) | > 100 µM (inactive) | > 100 µM (inactive) | > 100 µM (inactive) | > 100 µM (inactive) | > 100 µM (inactive) | > 100 µM (inactive) | > 100 µM (inactive) | > 100 µM (inactive) | > 100 µM (inactive) | > 100 µM (inactive)
3 | OCCOCCN1CCN(c2nc(N3CCCC3)c3nc(Cl)c(NCc4ccccc4)nc3n2)CC1 | 15 µM (inactive) | 11.5 µM (inactive) | 12.9 µM (inactive) | 17.7 µM (inactive) | 7.64 µM (inactive) | 16.5 µM (inactive) | 21 µM (inactive) | 13.2 µM (inactive) | 14.5 µM (inactive) | 17.2 µM (inactive) | 15.1 µM (inactive) | 13 µM (inactive) | 10.7 µM (inactive) | 10.5 µM (inactive) | 13.8 µM (inactive) | 12.7 µM (inactive) | 12.4 µM (inactive) | 11.6 µM (inactive) | 12 µM (inactive) | 13.6 µM (inactive)
4 | COc1ccc2c(c1)CC1Cc3cc(OC)c(OC)cc3CN1CC2 (stereo not given) | 38.5 µM (inactive) | 23 µM (inactive) | 11.6 µM (inactive) | 53 µM (inactive) | 25.8 µM (inactive) | 82.2 µM (inactive) | 29.7 µM (inactive) | 23.9 µM (inactive) | 31.8 µM (inactive) | 71.6 µM (inactive) | 56 µM (inactive) | 27.2 µM (inactive) | 24 µM (inactive) | 23.5 µM (inactive) | 72.4 µM (inactive) | 19.5 µM (inactive) | 22.2 µM (inactive) | 48.2 µM (inactive) | 49.5 µM (inactive) | 32.8 µM (inactive)
5 | Cc1ccc2c(O)cc(-c3ccccc3)nc2n1 | 5.24 µM (inactive) | 0.0574 µM (active) | 1.44 µM (inactive) | 0.091 µM (active) | 0.115 µM (active) | 1.56 µM (inactive) | 0.0664 µM (active) | > 100 µM (inactive) | 0.0367 µM (active) | 0.105 µM (active) | 2.56 µM (inactive) | 0.222 µM (active) | 0.116 µM (active) | 0.116 µM (active) | 0.0346 µM (active) | 0.0887 µM (active) | 0.12 µM (active) | 0.0643 µM (active) | 0.0875 µM (active) | 1.74 µM (inactive)
6 | Clc1ccc(C2=C(c3ccccc3)C(c3ccc(Cl)cc3)N3C(=N[C@H]4CCCC[C@@H]43)N2)cc1 (stereo not given in full) | 9.2 µM (inactive) | 2.99 µM (inactive) | 9.59 µM (inactive) | 19.4 µM (inactive) | 2.48 µM (inactive) | 19.9 µM (inactive) | 15.2 µM (inactive) | 15.6 µM (inactive) | 11.4 µM (inactive) | 17.1 µM (inactive) | 16.3 µM (inactive) | 14.7 µM (inactive) | 4.46 µM (inactive) | 11.8 µM (inactive) | 13.8 µM (inactive) | 3.58 µM (inactive) | 10.5 µM (inactive) | 12.4 µM (inactive) | 11.3 µM (inactive) | 12.4 µM (inactive)
